This is an account of results in the kinase profiling compilation of Christmann-Franck et al. (2016).

Structures are written as SMILES.

Some targets named below: AKT2 (human) (UniProt P31751); CDK11A (human) (UniProt Q9UQ88); AAK1 (human) (UniProt Q2M2I8); ANKK1 (human) (UniProt Q8NFD2); BMPR1B (human) (UniProt O00238); CAMK2A (human) (UniProt Q9UQM7); CAMK2G (human) (UniProt Q13555); CDK16 (human) (UniProt Q00536); CSNK1G1 (human) (UniProt Q9HCP0); EIF2AK2 (human) (UniProt P19525); GAK (human) (UniProt O14976); LATS2 (human) (UniProt Q9NRM7); MAP2K6 (human) (UniProt P52564); MAPK10 (human) (UniProt P53779); MAPK14 (human) (UniProt Q16539); MAPK8 (human) (UniProt P45983); MAPK9 (human) (UniProt P45984); MINK1 (human) (UniProt Q8N4C8); PAK7 (human) (UniProt Q9P286); PIK3CB (human) (UniProt P42338); PIM1 (human) (UniProt P11309); PLK4 (human) (UniProt O00444); RPS6KA1 KD2 (human) (UniProt Q15418); RPS6KA2 KD2 (human) (UniProt Q15349); RPS6KA6 KD2 (human) (UniProt Q9UK32); SRPK1 (human) (UniProt Q96SB4); STK25 (human) (UniProt O00506); STK38L (human) (UniProt Q9Y2H1); TAOK3 (human) (UniProt Q9H2K8); TLK1 (human) (UniProt Q9UKI8); TLK2 (human) (UniProt Q86UE8); TNIK (human) (UniProt Q9UKE5); ULK1 (human) (UniProt O75385); ULK3 (human) (UniProt Q6PHR2); ZAP70 (human) (UniProt P43403); CSNK2A2 (human) (UniProt P19784); DAPK2 (human) (UniProt Q9UIK4); HIPK1 (human) (UniProt Q86Z02); PIK3CG (human) (UniProt P48736); PIM2 (human) (UniProt Q9P1W9); PIM3 (human) (UniProt Q86V86); CHEK1 (human) (UniProt O14757); DAPK3 (human) (UniProt O43293); DCLK1 (human) (UniProt O15075); DCLK2 (human) (UniProt Q8N568); MAP2K3 (human) (UniProt P46734); PLK1 (human) (UniProt P53350); PLK3 (human) (UniProt Q9H4B4); PRKD1 (human) (UniProt Q15139); PRKD2 (human) (UniProt Q9BZL6); RIOK2 (human) (UniProt Q9BVS4); RPS6KA4 KD2 (human) (UniProt O75676); STK33 (human) (UniProt Q9BYT3); TSSK1B (human) (UniProt Q9BXA7); TTK (human) (UniProt P33981); ULK2 (human) (UniProt Q8IYT8).

Common to all, as to experiment: KINOMEscan competition binding
What all share (conditions): compound 10.0 µM

In assay [1] the test system is PIK3CA (human), P42336 [E545K].
The subject of assay [2] is EIF2AK4 KD2 (human), Q9P2K8 [S808G].

Sequence of GAK (human) (O14976 whole entry, looked up): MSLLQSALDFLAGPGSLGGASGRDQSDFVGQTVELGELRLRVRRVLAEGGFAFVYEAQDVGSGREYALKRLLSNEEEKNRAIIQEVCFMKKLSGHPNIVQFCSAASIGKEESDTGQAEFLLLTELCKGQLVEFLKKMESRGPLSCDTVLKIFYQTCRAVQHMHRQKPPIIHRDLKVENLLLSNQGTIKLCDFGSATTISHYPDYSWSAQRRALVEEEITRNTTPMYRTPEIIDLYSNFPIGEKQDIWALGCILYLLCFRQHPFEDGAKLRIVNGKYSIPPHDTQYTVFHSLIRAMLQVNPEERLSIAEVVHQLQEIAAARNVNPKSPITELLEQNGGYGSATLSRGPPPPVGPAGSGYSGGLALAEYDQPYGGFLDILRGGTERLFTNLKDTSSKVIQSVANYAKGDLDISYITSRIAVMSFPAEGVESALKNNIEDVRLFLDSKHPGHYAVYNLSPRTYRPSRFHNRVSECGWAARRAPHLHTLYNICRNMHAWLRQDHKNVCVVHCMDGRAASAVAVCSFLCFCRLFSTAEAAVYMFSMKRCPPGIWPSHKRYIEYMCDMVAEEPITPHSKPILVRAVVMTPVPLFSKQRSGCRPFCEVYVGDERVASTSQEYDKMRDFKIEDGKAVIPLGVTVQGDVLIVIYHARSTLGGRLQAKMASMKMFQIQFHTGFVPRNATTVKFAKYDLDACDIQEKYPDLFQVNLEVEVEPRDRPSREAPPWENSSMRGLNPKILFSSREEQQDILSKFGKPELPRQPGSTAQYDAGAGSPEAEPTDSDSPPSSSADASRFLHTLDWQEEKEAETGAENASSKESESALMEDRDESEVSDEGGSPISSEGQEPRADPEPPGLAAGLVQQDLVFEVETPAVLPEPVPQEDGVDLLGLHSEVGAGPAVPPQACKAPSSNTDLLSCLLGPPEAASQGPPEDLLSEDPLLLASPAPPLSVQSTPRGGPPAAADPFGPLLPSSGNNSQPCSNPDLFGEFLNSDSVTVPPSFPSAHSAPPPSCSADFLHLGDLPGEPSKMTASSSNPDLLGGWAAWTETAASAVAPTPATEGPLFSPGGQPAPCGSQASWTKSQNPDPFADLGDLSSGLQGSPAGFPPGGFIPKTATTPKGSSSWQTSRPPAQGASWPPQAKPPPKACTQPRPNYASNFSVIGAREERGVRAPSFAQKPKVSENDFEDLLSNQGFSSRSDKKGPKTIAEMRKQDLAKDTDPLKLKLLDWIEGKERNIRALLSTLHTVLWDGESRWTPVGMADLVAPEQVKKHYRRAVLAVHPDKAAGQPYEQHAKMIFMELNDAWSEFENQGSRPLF
Sequence of ULK3 (human) (Q6PHR2 whole entry, looked up): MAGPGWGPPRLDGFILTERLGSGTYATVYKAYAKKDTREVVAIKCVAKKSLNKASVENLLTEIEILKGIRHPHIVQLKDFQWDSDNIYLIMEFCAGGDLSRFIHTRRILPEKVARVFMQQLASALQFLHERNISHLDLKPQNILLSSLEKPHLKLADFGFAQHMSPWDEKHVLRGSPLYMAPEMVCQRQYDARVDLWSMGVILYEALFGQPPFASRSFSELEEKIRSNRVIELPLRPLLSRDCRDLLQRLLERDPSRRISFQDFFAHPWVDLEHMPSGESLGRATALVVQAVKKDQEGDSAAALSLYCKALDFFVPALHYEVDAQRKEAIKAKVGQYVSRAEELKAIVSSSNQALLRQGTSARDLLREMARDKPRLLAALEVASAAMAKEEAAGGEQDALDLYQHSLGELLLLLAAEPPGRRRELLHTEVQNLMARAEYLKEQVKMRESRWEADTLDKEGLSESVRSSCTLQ
Sequence of MINK1 (human) (Q8N4C8 whole entry, looked up): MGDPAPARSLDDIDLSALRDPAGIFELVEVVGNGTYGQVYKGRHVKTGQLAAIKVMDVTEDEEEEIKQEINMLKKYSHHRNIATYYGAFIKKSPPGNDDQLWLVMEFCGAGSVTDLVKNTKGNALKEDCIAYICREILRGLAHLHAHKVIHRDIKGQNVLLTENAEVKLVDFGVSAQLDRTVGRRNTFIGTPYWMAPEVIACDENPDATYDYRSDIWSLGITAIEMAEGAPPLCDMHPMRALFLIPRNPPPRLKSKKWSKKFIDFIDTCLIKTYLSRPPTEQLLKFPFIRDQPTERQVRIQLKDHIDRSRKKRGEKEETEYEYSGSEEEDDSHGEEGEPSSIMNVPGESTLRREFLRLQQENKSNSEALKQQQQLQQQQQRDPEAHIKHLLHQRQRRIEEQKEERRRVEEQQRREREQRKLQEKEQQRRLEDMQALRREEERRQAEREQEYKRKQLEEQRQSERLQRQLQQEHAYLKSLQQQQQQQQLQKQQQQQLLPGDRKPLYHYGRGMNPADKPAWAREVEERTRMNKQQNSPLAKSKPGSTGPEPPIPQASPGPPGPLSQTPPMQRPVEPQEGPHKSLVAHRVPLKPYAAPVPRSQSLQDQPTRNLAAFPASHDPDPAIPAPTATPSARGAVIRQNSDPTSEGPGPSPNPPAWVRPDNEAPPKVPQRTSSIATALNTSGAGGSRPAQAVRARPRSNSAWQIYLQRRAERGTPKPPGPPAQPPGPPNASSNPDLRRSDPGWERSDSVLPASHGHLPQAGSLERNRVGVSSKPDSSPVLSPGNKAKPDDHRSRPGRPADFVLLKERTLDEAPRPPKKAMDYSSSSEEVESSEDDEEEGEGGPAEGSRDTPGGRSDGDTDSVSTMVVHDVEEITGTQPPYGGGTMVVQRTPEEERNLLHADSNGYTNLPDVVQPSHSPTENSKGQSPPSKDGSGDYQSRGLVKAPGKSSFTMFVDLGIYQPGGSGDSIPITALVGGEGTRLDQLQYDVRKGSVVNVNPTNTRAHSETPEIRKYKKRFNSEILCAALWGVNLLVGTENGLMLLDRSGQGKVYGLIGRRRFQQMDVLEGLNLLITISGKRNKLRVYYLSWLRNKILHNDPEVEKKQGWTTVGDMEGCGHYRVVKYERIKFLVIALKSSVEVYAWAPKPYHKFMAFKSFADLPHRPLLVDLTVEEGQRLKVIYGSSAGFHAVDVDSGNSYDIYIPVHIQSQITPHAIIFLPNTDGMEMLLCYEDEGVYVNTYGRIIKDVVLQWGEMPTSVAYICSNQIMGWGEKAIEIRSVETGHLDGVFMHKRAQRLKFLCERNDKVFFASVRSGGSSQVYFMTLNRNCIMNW
Sequence of RPS6KA1 KD2 (human) (Q15418 whole entry, looked up): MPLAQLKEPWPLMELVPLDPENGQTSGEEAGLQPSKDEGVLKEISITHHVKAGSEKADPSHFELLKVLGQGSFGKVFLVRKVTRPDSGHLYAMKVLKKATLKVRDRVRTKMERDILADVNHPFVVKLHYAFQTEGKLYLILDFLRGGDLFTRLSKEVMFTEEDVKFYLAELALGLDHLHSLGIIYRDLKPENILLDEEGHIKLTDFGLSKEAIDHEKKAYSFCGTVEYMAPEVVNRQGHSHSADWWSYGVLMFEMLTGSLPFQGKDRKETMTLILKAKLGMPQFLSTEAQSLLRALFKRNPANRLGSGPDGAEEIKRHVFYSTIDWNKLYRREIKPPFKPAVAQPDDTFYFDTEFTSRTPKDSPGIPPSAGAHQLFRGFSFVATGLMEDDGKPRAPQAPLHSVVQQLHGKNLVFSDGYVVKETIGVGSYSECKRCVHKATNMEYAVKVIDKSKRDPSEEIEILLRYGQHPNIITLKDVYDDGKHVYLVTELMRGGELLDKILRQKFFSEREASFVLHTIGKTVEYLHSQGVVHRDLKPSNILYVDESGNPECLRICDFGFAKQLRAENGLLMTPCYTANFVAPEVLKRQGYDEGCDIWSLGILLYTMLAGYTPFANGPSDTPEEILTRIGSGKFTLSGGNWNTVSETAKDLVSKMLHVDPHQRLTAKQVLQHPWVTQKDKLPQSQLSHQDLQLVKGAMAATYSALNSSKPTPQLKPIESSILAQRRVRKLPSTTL
Sequence of RPS6KA2 KD2 (human) (Q15349 whole entry, looked up): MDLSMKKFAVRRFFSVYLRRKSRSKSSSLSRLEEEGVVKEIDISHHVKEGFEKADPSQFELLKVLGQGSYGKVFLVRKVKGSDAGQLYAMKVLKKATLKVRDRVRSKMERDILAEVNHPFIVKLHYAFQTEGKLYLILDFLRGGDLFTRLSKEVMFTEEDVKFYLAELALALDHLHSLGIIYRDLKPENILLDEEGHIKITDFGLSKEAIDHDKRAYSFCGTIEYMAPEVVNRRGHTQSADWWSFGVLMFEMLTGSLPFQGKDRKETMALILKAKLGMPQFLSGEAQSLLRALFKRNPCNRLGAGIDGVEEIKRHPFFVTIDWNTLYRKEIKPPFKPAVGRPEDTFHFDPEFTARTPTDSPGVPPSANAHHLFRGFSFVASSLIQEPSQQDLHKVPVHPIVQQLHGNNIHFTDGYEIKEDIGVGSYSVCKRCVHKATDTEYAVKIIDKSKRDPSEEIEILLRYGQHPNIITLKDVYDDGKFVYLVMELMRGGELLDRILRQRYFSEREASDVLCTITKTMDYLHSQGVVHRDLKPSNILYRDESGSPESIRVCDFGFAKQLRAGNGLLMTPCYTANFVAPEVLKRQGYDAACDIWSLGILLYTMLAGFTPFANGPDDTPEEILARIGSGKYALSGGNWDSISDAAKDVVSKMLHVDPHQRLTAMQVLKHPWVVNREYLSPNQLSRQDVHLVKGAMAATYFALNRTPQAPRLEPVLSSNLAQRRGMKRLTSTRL
Sequence of PIM1 (human) (P11309 whole entry, looked up): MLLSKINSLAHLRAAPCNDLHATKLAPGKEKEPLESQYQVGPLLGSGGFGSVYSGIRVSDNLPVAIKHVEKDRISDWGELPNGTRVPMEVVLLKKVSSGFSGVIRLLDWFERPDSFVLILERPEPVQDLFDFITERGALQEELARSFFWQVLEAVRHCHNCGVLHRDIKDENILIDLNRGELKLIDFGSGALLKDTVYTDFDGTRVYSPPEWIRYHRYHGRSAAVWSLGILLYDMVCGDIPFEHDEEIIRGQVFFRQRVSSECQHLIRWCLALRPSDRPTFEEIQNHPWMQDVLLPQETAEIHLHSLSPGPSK

Take `O=C1NC(=O)C(=Cc2ccc(-c3ccc(F)cc3O)o2)C(=O)N1`: the kinase still bound, per cent of control on AKT2 (human) came out at 17%; at CDK11A (human) it was 31%.
In the case of `NS(=O)(=O)c1ccc(-c2ccc(/C=C3\SC(=S)N(CC(=O)O)C3=O)o2)cc1`, the kinase still bound, per cent of control at AAK1 (human) turned out to be 34%; at ANKK1 (human), 31%; on BMPR1B (human), 27%; on CAMK2A (human) it was 34%; at CAMK2G (human), 33%; at CDK16 (human), 0.35%. The kinase still bound, per cent of control at CSNK1G1 (human) turned out to be 27%; at EIF2AK2 (human), 32%; on GAK (human) it was 20%; on LATS2 (human), 25%; at MAP2K6 (human), 32%; at MAPK10 (human) it was 30%. In addition, the kinase still bound, per cent of control at MAPK14 (human) was 20%; on MAPK8 (human), 22%; at MAPK9 (human), 21%; at MINK1 (human) it was 23%; on PAK7 (human), 22%; on PIK3CB (human), 29%. Further, the kinase still bound, per cent of control at PIM1 (human) was found to be 33%; on PLK4 (human), 0.35%; on RPS6KA1 KD2 (human) it was 29%; on RPS6KA2 KD2 (human), 22%; at RPS6KA6 KD2 (human) it was 32%; at SRPK1 (human), 22%. For the same compound, the kinase still bound, per cent of control turned out to be 34% at STK25 (human); 19% on STK38L (human); 34% on TAOK3 (human); 22% at TLK1 (human); 25% at TLK2 (human); 32% at TNIK (human). Further, the figures for the kinase still bound, per cent of control on ULK1 (human), on ULK3 (human) and at ZAP70 (human) were 29%, 26% and 21%, respectively.
Turning to `NS(=O)(=O)c1ccc(-c2cccc(/C=C3\SC(=O)NC3=O)c2)cc1`, the kinase still bound, per cent of control came out at 4.2% at CSNK2A2 (human); 26% at DAPK2 (human); 2.2% on HIPK1 (human); 30% at MINK1 (human); 16% in assay [1]; 10% at PIK3CG (human). In addition, the kinase still bound, per cent of control was found to be 4.2% at PIM1 (human), 1.4% at PIM2 (human), 5.1% on PIM3 (human) and 18% on ULK3 (human).
Consider `COc1cc(N2CCN(C)CC2)ccc1Nc1ncc2c(n1)N1CCC[C@H]1CC(=O)N2C`, for which the kinase still bound, per cent of control on CHEK1 (human) is 16%; on DAPK3 (human), 28%; at DCLK1 (human), 0.75%; at DCLK2 (human), 3.6%; in assay [2] it was 18%; at GAK (human), 6.2%. Further, the kinase still bound, per cent of control on MAP2K3 (human) came to 0.4%; on PLK1 (human), 2.4%; at PLK3 (human), 3.6%; on PRKD1 (human) it was 15%; on PRKD2 (human), 2.6%; at RIOK2 (human) it was 0.2%. In addition, the kinase still bound, per cent of control on RPS6KA1 KD2 (human) amounted to 28%; on RPS6KA2 KD2 (human), 9.4%; on RPS6KA4 KD2 (human), 33%; at RPS6KA6 KD2 (human) it was 8.6%; at STK33 (human), 5%; at TSSK1B (human) it was 23%. The kinase still bound, per cent of control at TTK (human) was 2.6%; on ULK2 (human) it was 19%.
